Reference: patent publication US4409210A, “Antibiotic compound” (priority 1982, dated 1983)
In brackets after ≈: the same amount, converted by molar mass.

How the values were obtained:
Format in all cases: cell-based
[1] = system: Clostridium ramosum A21970; assay: MIC, serial two-fold dilution method (anaerobic); conditions: Thomasclavelia ramosa; Clostridium ramosum A21970; GAM agar medium; inoculum 10^7-10^8; read-out: minimum inhibitory concentration (MIC)
[2] = system: Propionibacterium acnes A21953; assay: MIC, serial two-fold dilution method (anaerobic); conditions: Cutibacterium acnes; Propionibacterium acnes A21953; GAM agar medium; inoculum 10^7-10^8; read-out: minimum inhibitory concentration (MIC)
[3] = system: Veillonella parvula A20010; assay: MIC, serial two-fold dilution method (anaerobic); conditions: Veillonella parvula A20010; GAM agar medium; inoculum 10^7-10^8; read-out: minimum inhibitory concentration (MIC)
[4] = system: Bacteroides fragilis A20928-1; assay: MIC, serial two-fold dilution method (anaerobic); conditions: A209281; Bacteroides fragilis A20928-1; GAM agar medium; inoculum 10^7-10^8; read-out: minimum inhibitory concentration (MIC)
[5] = system: Veillonella alcalescens A21914-1; assay: MIC, serial two-fold dilution method (anaerobic); conditions: Veillonella parvula, A219141; Veillonella alcalescens A21914-1; GAM agar medium; inoculum 10^7-10^8; read-out: minimum inhibitory concentration (MIC)
[6] = system: Fusobacterium nucleatum A21906; assay: MIC, serial two-fold dilution method (anaerobic); conditions: Fusobacterium nucleatum A21906; GAM agar medium; inoculum 10^7-10^8; read-out: minimum inhibitory concentration (MIC)
[7] = system: Bacteroides fragilis A20929; assay: MIC, serial two-fold dilution method (anaerobic); conditions: Bacteroides fragilis A20929; GAM agar medium; inoculum 10^7-10^8; read-out: minimum inhibitory concentration (MIC)
[8] = system: Bacteroides fragilis CUH-24; assay: MIC, serial two-fold dilution method (anaerobic); conditions: CUH24; Bacteroides fragilis CUH-24; GAM agar medium; inoculum 10^7-10^8; read-out: minimum inhibitory concentration (MIC)
[9] = system: Bacteroides fragilis CUH-9; assay: MIC, serial two-fold dilution method (anaerobic); conditions: CUH9; Bacteroides fragilis CUH-9; GAM agar medium; inoculum 10^7-10^8; read-out: minimum inhibitory concentration (MIC)
[10] = system: Peptococcus magnas A21676; assay: MIC, serial two-fold dilution method (anaerobic); conditions: Peptococcus magnas A21676; GAM agar medium; inoculum 10^7-10^8; read-out: minimum inhibitory concentration (MIC)
[11] = system: Clostridium perfringens A22787; assay: microbe, parasite or virus in culture; conditions: Clostridium perfringens, A22787, read-out: minimum inhibitory concentration (MIC)
[12] = system: Peptostreptococcus anaerobius A21905; assay: MIC, serial two-fold dilution method (anaerobic); conditions: Peptostreptococcus anaerobius A21905; GAM agar medium; inoculum 10^7-10^8; read-out: minimum inhibitory concentration (MIC)
[13] = system: Fusobacterium varium ATCC 8501; assay: MIC, serial two-fold dilution method (anaerobic); conditions: ATCC8501; Fusobacterium varium ATCC 8501; GAM agar medium; inoculum 10^7-10^8; read-out: minimum inhibitory concentration (MIC)
[14] = system: Bacteroides fragilis A22053; assay: MIC, serial two-fold dilution method (anaerobic); conditions: Bacteroides fragilis A22053; GAM agar medium; inoculum 10^7-10^8; read-out: minimum inhibitory concentration (MIC)
[15] = system: Clostridium acidiurici A9560; assay: MIC, serial two-fold dilution method (anaerobic); conditions: Gottschalkia acidurici; Clostridium acidiurici A9560; GAM agar medium; inoculum 10^7-10^8; read-out: minimum inhibitory concentration (MIC)
[16] = system: Clostridium perfringens A9635; assay: microbe, parasite or virus in culture; conditions: Clostridium perfringens, A9635, read-out: minimum inhibitory concentration (MIC)
[17] = system: Bacteroides fragilis A21900; assay: MIC, serial two-fold dilution method (anaerobic); conditions: Bacteroides fragilis A21900; GAM agar medium; inoculum 10^7-10^8; read-out: minimum inhibitory concentration (MIC)
[18] = system: Propionibacterium acnes A21933; assay: MIC, serial two-fold dilution method (anaerobic); conditions: Cutibacterium acnes; Propionibacterium acnes A21933; GAM agar medium; inoculum 10^7-10^8; read-out: minimum inhibitory concentration (MIC)
[19] = system: Fusobacterium necrophorum A20013; assay: MIC, serial two-fold dilution method (anaerobic); conditions: Fusobacterium necrophorum A20013; GAM agar medium; inoculum 10^7-10^8; read-out: minimum inhibitory concentration (MIC)
[20] = system: Bacteroides fragilis A20926; assay: MIC, serial two-fold dilution method (anaerobic); conditions: Bacteroides fragilis A20926; GAM agar medium; inoculum 10^7-10^8; read-out: minimum inhibitory concentration (MIC)
[21] = system: Clostridium difficile A21675; assay: MIC, serial two-fold dilution method (anaerobic); conditions: Clostridioides difficile; Clostridium difficile A21675; GAM agar medium; inoculum 10^7-10^8; read-out: minimum inhibitory concentration (MIC)
Experimental: (§1) The minimum inhibitory concentration (MIC) of Bu-2517 was determined for a variety of aerobic and anaerobic bacteria by the serial two-fold dilution method using a multi-inoculating apparatus. Mueller-Hinton agar was generally used for aerobic bacteria, GC medium (Eiken) for fastidious aerobic organisms such as streptococci, Neisseria and Haemophilus species, and GAM agar medium (Nissui) for anaerobic bacteria. The inoculum size was adjusted to 10^6 CFU/ml for streptococci, Neisseria and Haemophilus species, 10^4 for other aerobic bacteria and 10^7 -10^8 for all anaerobic organisms. Amphomycin, ampicillin, chloramphenicol, clindamycin, erthromycin, kanamycin and vancomycin were used as reference antibiotics.

[22] = system: Clostridium septicum A21869; assay: MIC, serial two-fold dilution method (anaerobic); conditions: Clostridium septicum A21869; GAM agar medium; inoculum 10^7-10^8; read-out: minimum inhibitory concentration (MIC)
Experimental: as §1

[23] = system: Clostridium difficile A21972; assay: MIC, serial two-fold dilution method (anaerobic); conditions: Clostridioides difficile; Clostridium difficile A21972; GAM agar medium; inoculum 10^7-10^8; read-out: minimum inhibitory concentration (MIC)
Experimental: as §1

[24] = system: Clostridium chauvoei A9561; assay: MIC, serial two-fold dilution method (anaerobic); conditions: Clostridium chauvoei A9561; GAM agar medium; inoculum 10^7-10^8; read-out: minimum inhibitory concentration (MIC)
Experimental: as §1

[25] = system: Peptostreptococcus intermedius A21881; assay: MIC, serial two-fold dilution method (anaerobic); conditions: Peptostreptococcus intermedius A21881; GAM agar medium; inoculum 10^7-10^8; read-out: minimum inhibitory concentration (MIC)
[26] = system: Propionibacterium acnes A22650; assay: MIC, serial two-fold dilution method (anaerobic); conditions: Cutibacterium acnes; Propionibacterium acnes A22650; GAM agar medium; inoculum 10^7-10^8; read-out: minimum inhibitory concentration (MIC)
[27] = system: Bacteroides fragilis A22695; assay: MIC, serial two-fold dilution method (anaerobic); conditions: Bacteroides fragilis A22695; GAM agar medium; inoculum 10^7-10^8; read-out: minimum inhibitory concentration (MIC)
[28] = system: Bacteroides fragilis A22533; assay: MIC, serial two-fold dilution method (anaerobic); conditions: Bacteroides fragilis A22533; GAM agar medium; inoculum 10^7-10^8; read-out: minimum inhibitory concentration (MIC)
[29] = system: Bacteroides ovatus A22400; assay: MIC, serial two-fold dilution method (anaerobic); conditions: Bacteroides ovatus A22400; GAM agar medium; inoculum 10^7-10^8; read-out: minimum inhibitory concentration (MIC)
[30] = system: Clostridium cylindrosporum A9562; assay: MIC, serial two-fold dilution method (anaerobic); conditions: Clostridium cylindrosporum A9562; GAM agar medium; inoculum 10^7-10^8; read-out: minimum inhibitory concentration (MIC)

## CCC[C@@H]1C[C@@H](C(=O)N[C@@H]([C@H]2O[C@H](SC)[C@H](O)[C@@H](O)[C@H]2O)[C@H](C)Cl)N(C)C1 [Clindamycin]
[1]
  MIC: 0.025 µg/mL (≈ 0.0588 µM)
[2]
  MIC: 0.8 µg/mL (≈ 1.88 µM)
[3]
  MIC: 0.4 µg/mL (≈ 0.941 µM)
[4]
  MIC: 0.025 µg/mL (≈ 0.0588 µM)
[5]
  MIC: 0.013 µg/mL (≈ 0.0306 µM)
[6]
  MIC: 1.6 µg/mL (≈ 3.76 µM)
[7]
  MIC: 3.1 µg/mL (≈ 7.29 µM)
[8]
  MIC: > 100 µg/mL
[9]
  MIC: 50 µg/mL (≈ 118 µM)
[10]
  MIC: 0.05 µg/mL (≈ 0.118 µM)
[11]
  MIC: 50 µg/mL (≈ 118 µM)
[12]
  MIC: 0.2 µg/mL (≈ 0.471 µM)
[13]
  MIC: 1.6 µg/mL (≈ 3.76 µM)
[14]
  MIC: 0.2 µg/mL (≈ 0.471 µM)
[15]
  MIC: 0.8 µg/mL (≈ 1.88 µM)
[16]
  MIC: 0.025 µg/mL (≈ 0.0588 µM)
[17]
  MIC: 1.6 µg/mL (≈ 3.76 µM)
[18]
  MIC: 0.8 µg/mL (≈ 1.88 µM)
[19]
  MIC: 12.5 µg/mL (≈ 29.4 µM)
[20]
  MIC: 0.025 µg/mL (≈ 0.0588 µM)
[21]
  MIC: 100 µg/mL (≈ 235 µM)
[22]
  MIC: 0.8 µg/mL (≈ 1.88 µM)
[23]
  MIC: 0.025 µg/mL (≈ 0.0588 µM)
[24]
  MIC: 0.025 µg/mL (≈ 0.0588 µM)
[25]
  MIC: 0.2 µg/mL (≈ 0.471 µM)
[26]
  MIC: 0.1 µg/mL (≈ 0.235 µM)
[27]
  MIC: 0.1 µg/mL (≈ 0.235 µM)
[28]
  MIC: 0.025 µg/mL (≈ 0.0588 µM)
[29]
  MIC: 6.3 µg/mL (≈ 14.8 µM)
[30]
  MIC: 0.8 µg/mL (≈ 1.88 µM)
